In paper PMC10341549, “Inhibitory Investigations of Acyl-CoA Derivatives against Human Lipoxygenase Isozymes” (International Journal of Molecular Sciences, 2023):

Experiments:
h5-LOX = target: T1, h5-LOX (Homo sapiens, UniProt P09917, C241A/C562A/D45S/DEL41-43/F15H/K654E/K655N/K656L/L77S/N44G/W14E/W76G); experiment: IC50 determination against h5-LOX; assay type: biochemical; settings: 10 μM AA, 50 mM HEPES pH 7.5, 200 µM ATP, ammonium-sulfate precipitate enzyme, 22 °C
T1 sequence (P09917 with tags, fused parts or gaps W14E/F15H/DEL41-43/N44G/D45S/W76G/L77S/C241A/C562A/K654E/K655N/K656L): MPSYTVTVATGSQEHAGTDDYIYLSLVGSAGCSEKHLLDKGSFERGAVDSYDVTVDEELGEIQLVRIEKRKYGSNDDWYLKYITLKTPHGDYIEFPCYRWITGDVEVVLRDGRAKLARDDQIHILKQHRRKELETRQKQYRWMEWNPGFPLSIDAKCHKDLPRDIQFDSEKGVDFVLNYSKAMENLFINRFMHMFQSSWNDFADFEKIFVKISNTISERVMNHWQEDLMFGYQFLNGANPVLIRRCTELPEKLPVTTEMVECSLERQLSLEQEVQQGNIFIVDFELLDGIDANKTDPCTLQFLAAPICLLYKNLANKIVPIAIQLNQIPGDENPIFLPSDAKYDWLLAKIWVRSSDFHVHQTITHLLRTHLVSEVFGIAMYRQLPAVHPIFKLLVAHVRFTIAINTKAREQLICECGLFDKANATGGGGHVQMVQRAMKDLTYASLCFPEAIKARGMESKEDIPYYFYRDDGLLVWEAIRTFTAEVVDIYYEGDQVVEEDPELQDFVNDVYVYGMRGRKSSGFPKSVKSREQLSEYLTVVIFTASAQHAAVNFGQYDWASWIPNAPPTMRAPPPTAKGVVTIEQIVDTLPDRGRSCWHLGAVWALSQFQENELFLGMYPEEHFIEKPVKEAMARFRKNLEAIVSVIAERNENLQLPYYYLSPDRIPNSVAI

h15-LOX-2 = target: T2, h15-LOX-2 (Homo sapiens, UniProt O15296); experiment: IC50 determination against h15-LOX-2; assay type: biochemical; settings: 10 μM AA, 25 mM HEPES pH 7.5, 0.01% Triton X-100, 22 °C
T2 construct: His tag; made in house
T2 sequence (O15296 1-676): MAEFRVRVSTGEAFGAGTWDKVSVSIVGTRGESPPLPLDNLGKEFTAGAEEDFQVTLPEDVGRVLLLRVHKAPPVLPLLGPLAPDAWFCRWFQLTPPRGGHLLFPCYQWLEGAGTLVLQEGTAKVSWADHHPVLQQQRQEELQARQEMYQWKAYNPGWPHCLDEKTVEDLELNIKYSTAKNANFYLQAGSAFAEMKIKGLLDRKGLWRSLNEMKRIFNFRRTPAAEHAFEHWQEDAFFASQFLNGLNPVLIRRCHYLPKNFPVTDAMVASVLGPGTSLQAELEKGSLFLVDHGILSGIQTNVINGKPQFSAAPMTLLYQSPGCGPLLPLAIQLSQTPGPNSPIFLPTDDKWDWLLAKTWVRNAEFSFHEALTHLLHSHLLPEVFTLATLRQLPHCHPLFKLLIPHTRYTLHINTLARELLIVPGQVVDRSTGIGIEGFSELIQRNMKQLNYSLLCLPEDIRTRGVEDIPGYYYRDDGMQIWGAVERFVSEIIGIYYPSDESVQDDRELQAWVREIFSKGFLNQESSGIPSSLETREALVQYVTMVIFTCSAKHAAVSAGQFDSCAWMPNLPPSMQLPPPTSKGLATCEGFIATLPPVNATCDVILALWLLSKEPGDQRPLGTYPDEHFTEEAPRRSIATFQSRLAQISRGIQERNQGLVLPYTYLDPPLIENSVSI
Description: Overexpression and purification of his-tagged wild-type h12-LOX (Uniprot entry P18054), h15-LOX-1 (Uniprot entry P16050), and h15-LOX-2 (Uniprot entry O15296) were performed using nickel-affinity chromatography. The purity of h12-LOX, h15-LOX-1, and h15-LOX-2 was assessed using SDS gel as greater than 85%, and metal content was assessed with a Finnigan inductively coupled plasma mass spectrometer (ICP-MS, Thermo Fischer Scientific, San Jose, USA) via comparison with iron standard solution. Cobalt-EDTA was used as an internal standard. WT h5-LOX (UniProt entry P09917) was expressed in Rosetta 2 cells (Novagen) transformed with the pET14b-Stable-5-LOX plasmid (a gift from Marcia Newcomer of Louisiana State University) and grown in Terrific Broth containing 34 μg/mL chloramphenicol and 100 μg/mL ampicillin at 37 °C for 3.5 h, then placed at 20 °C for an additional 26 h. Cells were pelleted and resuspended in 50 mM Tris (pH 8.0), 500 mM NaCl, 20 mM imidazole with 1 μM pepstatin, 100 μM PMSF, and DNaseI (Sigma, Kanagawa, Japan). The cells were lysed in a French pressure cell and centrifuged at 40,000× g for 20 min at 4 °C. Saturated ammonium sulfate was added to achieve a final solution of 10% and inverted several times. The lysate was centrifuged at 40,000× g for 10 min at 4 °C. The pellet was discarded, and the supernatant was increased to a final concentration of 50% ammonium sulfate. The supernatant was rotated for 10 min at 4 °C then centrifuged at 40,000× g for 10 min at 4 °C. The pellet was split into 150 mg aliquots. The WT h5-LOX used for the kinetics in this work was not purified due to a dramatic loss in activity and was therefore prepared as an ammonium-sulfate precipitate.
IC50 values for each acyl-CoA were measured against h5-LOX, h12-LOX, h15-LOX-1, and h15-LOX-2. The reactions were carried out in 25 mM HEPES buffer (pH 8.00), 0.01% Triton X-100, and 10 μM AA for h12-LOX; 25 mM HEPES buffer (pH 7.5), 0.01% Triton X-100, and 10 μM AA for h15-LOX-1 and h15-LOX-2; and 50 mM HEPES buffer (pH 7.5), 100 µM EDTA, 50 mM NaCl, 200 µM ATP, and 10 μM AA for h5-LOX. IC50 reactions were implemented with h15-LOX-1 (0.125 μM), h12-LOX (0.300 μM), h15-LOX-2 (0.5 μM), and h5-LOX (∼600 nM ammonium sulfate salt) at 22 °C in a 1 cm^2 quartz cuvette containing 2 mL of the according buffer and 10 μM AA for no longer than 2 min to avoid any cleavage of the acyl-coenzyme A. Inhibitor concentrations ranging from 50 μM to 0.01 μM were used. All reactions were conducted using a Cary-UV Vis spectrophotometer (Agilent, Santa Clara, CA, USA). The fastest rates over 15 s intervals were recorded. IC50 values were obtained by determining the percent of inhibition of the enzymatic rate at ten inhibitor concentrations and plotting the rate against the inhibitor concentration, followed by a hyperbolic saturation curve fit. The saturation curve fits were performed in duplicate or triplicate, depending on the quality of the data. […] Through HPLC monitoring, we were able to determine a lack of degradation of the fatty acyl-CoAs over the first hour.

| IC50 (h5-LOX) [µM] | IC50 (h15-LOX-2) [µM] | IC50 (h15-LOX-2; listed as arachidonoyl-CoA (20:4)) [µM] | IC50 (h15-LOX-2; listed as palmitoleoyl-CoA (16:1)) [µM] | IC50 (h15-LOX-2; listed as palmitoyl-CoA (16:0)) [µM] | IC50 (h15-LOX-2; listed as ɣ-linolenoyl-CoA (18:3)) [µM] | Compound |
| --- | --- | --- | --- | --- | --- | --- |
| – | > 500 | – | – | – | – | CC/C=C\C/C=C\C/C=C\C/C=C\C/C=C\C/C=C\CCC(=O)SCCNC(=O)CCNC(=O)C(O)C(C)(C)COP(=O)(O)OP(=O)(O)OC[C@H]1O[C@@H](n2cnc3c(N)ncnc32)[C@H](O)[C@@H]1OP(=O)(O)O (stereo partly shown) [Docosahexaenoyl CoA (22:6), docosahexaenoyl-coenzyme A (22:6)] |
| 3.3 ± 0.3 | > 200 | – | – | > 100 | – | CCCCCCCCCCCCCCCC(=O)SCCNC(=O)CCNC(=O)[C@H](O)C(C)(C)COP(=O)(O)OP(=O)(O)OC[C@H]1O[C@@H](n2cnc3c(N)ncnc32)[C@H](O)[C@@H]1OP(=O)(O)O [Palmitoyl-CoA (16:0), palmitoyl-coenzyme A (16:0)] |
| > 50 | 7.6 ± 1 | – | – | – | – | CCCCCCCCCCCCCCCCCC(=O)SCCNC(=O)CCNC(=O)[C@H](O)C(C)(C)COP(=O)(O)OP(=O)(O)OC[C@H]1O[C@@H](n2cnc3c(N)ncnc32)[C@H](O)[C@@H]1OP(=O)(O)O [Stearoyl-CoA (18:0), stearoyl-coenzyme A (18:0)] |

Further lines, the compound ahead of its results:

| Compound | IC50 (h5-LOX) [µM] | IC50 (h15-LOX-2) [µM] | IC50 (h15-LOX-2; listed as arachidonoyl-CoA (20:4)) [µM] | IC50 (h15-LOX-2; listed as palmitoleoyl-CoA (16:1)) [µM] | IC50 (h15-LOX-2; listed as palmitoyl-CoA (16:0)) [µM] | IC50 (h15-LOX-2; listed as ɣ-linolenoyl-CoA (18:3)) [µM] |
| --- | --- | --- | --- | --- | --- | --- |
| CCCCC/C=C\C/C=C\C/C=C\C/C=C\CCCC(=O)SCCNC(=O)CCNC(=O)[C@H](O)C(C)(C)COP(=O)(O)OP(=O)(O)OC[C@H]1O[C@@H](n2cnc3c(N)ncnc32)[C@H](O)[C@@H]1OP(=O)(O)O [Arachidonoyl-CoA (20:4), arachidonoyl-coenzyme A (20:4)] | > 200 | > 500 | > 100 | – | – | – |
| CCCCC/C=C\C/C=C\CCCCCCCC(=O)SCCNC(=O)CCNC(=O)[C@H](O)C(C)(C)COP(=O)(O)OP(=O)(O)OC[C@H]1O[C@@H](n2cnc3c(N)ncnc32)[C@H](O)[C@@H]1OP(=O)(O)O [Linoleoyl-CoA (18:2), linoleoyl-CoA] | > 100 | > 100 | – | – | – | – |
| CCCCCCCC/C=C\CCCCCCCC(=O)SCCNC(=O)CCNC(=O)[C@H](O)C(C)(C)COP(=O)(O)OP(=O)(O)OC[C@H]1O[C@@H](n2cnc3c(N)ncnc32)[C@H](O)[C@@H]1OP(=O)(O)O [Oleoyl-CoA (18:1), oleoyl-coenzyme A (18:1)] | > 50 | 0.62 ± 0.06 | – | – | – | – |
| CCCCCC/C=C\CCCCCCCC(=O)SCCNC(=O)CCNC(=O)[C@H](O)C(C)(C)COP(=O)(O)OP(=O)(O)OC[C@H]1O[C@@H](n2cnc3c(N)ncnc32)[C@H](O)[C@@H]1OP(=O)(O)O [Palmitoleoyl-CoA (16:1), palmitoleoyl-coenzyme A (16:1)] | 2 ± 0.4 | > 200 | – | > 100 | – | – |
| CCCCC/C=C\C/C=C\C/C=C\CCCCC(=O)SCCNC(=O)CCNC(=O)[C@H](O)C(C)(C)COP(=O)(O)OP(=O)(O)OC[C@H]1O[C@@H](n2cnc3c(N)ncnc32)[C@H](O)[C@@H]1OP(=O)(O)O [ɣ-Linolenoyl-CoA (18:3), ɣ-linolenoyl-coenzyme A (18:3)] | > 500 | > 500 | – | – | – | > 100 |
